Measured values: patent publication US12409171B2, “Pharmaceutically active pyrazolo-pyridone modulators of DCN1/2-mediated cullin neddylation” (UNIVERSITY OF KENTUCKY RESEARCH FOUNDATION, priority 2019, dated 2025)

Biological target: DCN1 (Homo sapiens (Human), UniProt Q96GG9)
Experiment: TR-FRET binding assay (biotin-DCN1 / Ac-UBE2M12-AlexaFluor488)
Conditions: mean ± SD (n); read-out: DCN1_TRFRET Mean EC50
Outline: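 Biotinylated DCN1 binding to Ac-UBE2M12-AlexaFluor488 read by TR-FRET; assay cocktail pre-incubated 1 h at room temperature before compounds added from DMSO stocks by pin transfer. IC50 is the mean of three replicates ± SD; compounds tested in triplicate or more.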

Chain of DCN1 (Q96GG9 whole entry): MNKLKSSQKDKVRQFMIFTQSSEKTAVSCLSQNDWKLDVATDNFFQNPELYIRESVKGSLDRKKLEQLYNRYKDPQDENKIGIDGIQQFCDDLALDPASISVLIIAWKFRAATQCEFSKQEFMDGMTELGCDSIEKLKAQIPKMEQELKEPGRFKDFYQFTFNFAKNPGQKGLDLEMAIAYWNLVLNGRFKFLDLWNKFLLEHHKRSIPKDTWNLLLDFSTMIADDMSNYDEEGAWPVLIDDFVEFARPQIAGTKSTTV

Compound | EC50 [nM]
CCN1C(=O)[C@@H](NC(=O)c2cccc(C(F)(F)F)c2)[C@@H](c2ccc(F)cc2)c2c(CNCCNC(=O)OC(C)(C)C)nn(-c3ccccc3)c21 [RG-0014142, tert-butyl N-[2-({[(4S,5S)-7-ethyl-4-(4-fluorophenyl)-6-oxo-1-phenyl-5-[3-(trifluoromethyl)benzamido]-1H,4H,5H,6H,7H-pyrazolo[3,4-b]pyridin-3-yl]methyl}amino)ethyl]carbamate] | 116 ± 17.5
CCN1C(=O)[C@@H](NC(=O)c2cccc(C(F)(F)F)c2)[C@@H](c2ccc(F)cc2)c2c(CNC)nn(-c3ccccc3)c21 [RG-0014056, N-[(4S,5S)-7-ethyl-4-(4-fluorophenyl)-3-[(methylamino)methyl]-6-oxo-1-phenyl-1H,4H,5H,6H,7H-pyrazolo[3,4-b]pyridin-5-yl]-3-(trifluoromethyl)benzamide] | 118 ± 9.03
CCN1C(=O)[C@@H](NC(=O)c2cccc(Br)c2)[C@@H](c2ccc(F)cc2)c2c(C)nn(-c3ccccc3)c21 [RG-0013061, 3-bromo-N-[(4S,5S)-7-ethyl-4-(4-fluorophenyl)-3-methyl-6-oxo-1-phenyl-1H,4H,5H,6H,7H-pyrazolo[3,4-b]pyridin-5-yl]benzamide] | 485 ± 41.1
CCN1C(=O)[C@@H](NC(=O)c2cccc(C(F)(F)F)c2)[C@@H](c2ccc(F)cc2)c2c(C)nn(-c3ccc(C)cc3)c21 [RG-0014036, N-[(4S,5S)-7-ethyl-4-(4-fluorophenyl)-3-methyl-1-(4-methylphenyl)-6-oxo-1H,4H,5H,6H,7H-pyrazolo[3,4-b]pyridin-5-yl]-3-(trifluoromethyl)benzamide] | 3210 ± 156
CCN1C(=O)[C@@H](NC(=O)c2cccc(C)c2)[C@@H](c2ccc(F)cc2)c2c(C)nn(C(C)C)c21 [RG-0008860, N-[(4S,5S)-7-ethyl-4-(4-fluorophenyl)-3-methyl-6-oxo-1-(propan-2-yl)-1H,4H,5H,6H,7H-pyrazolo[3,4-b]pyridin-5-yl]-3-methylbenzamide] | 467 ± 28
CCN1C(=O)[C@@H](NC(=O)c2cccc(C(F)(F)F)c2)[C@@H](c2ccc(F)cc2)c2c(CNS(N)(=O)=O)nn(-c3ccccc3)c21 [RG-0014161, N-[(4S,5S)-7-ethyl-4-(4-fluorophenyl)-6-oxo-1-phenyl-3-[(sulfamoylamino)methyl]-1H,4H,5H,6H,7H-pyrazolo[3,4-b]pyridin-5-yl]-3-(trifluoromethyl)benzamide] | 145 ± 26.2
CCN1C(=O)[C@@H](NC(=O)c2cc(C)cc(F)c2)[C@@H](c2ccc(F)cc2)c2c(C)nn(-c3ccccc3)c21 [RG-0013053, N-[(4S,5S)-7-ethyl-4-(4-fluorophenyl)-3-methyl-6-oxo-1-phenyl-1H,4H,5H,6H,7H-pyrazolo[3,4-b]pyridin-5-yl]-3-fluoro-5-methylbenzamide] | 2330 ± 105
C#CCOCc1nn(-c2ccccc2)c2c1[C@H](c1ccc(F)cc1)[C@H](NC(=O)c1cccc(C)c1)C(=O)N2CC [RG-0013055, N-[(4S,5S)-7-ethyl-4-(4-fluorophenyl)-6-oxo-1-phenyl-3-[(prop-2-yn-1-yloxy)methyl]-1H,4H,5H,6H,7H-pyrazolo[3,4-b]pyridin-5-yl]-3-methylbenzamide] | 168 ± 8.1
COCN1C(=O)[C@@H](NC(=O)c2cccc(C)c2)[C@@H](c2ccc(F)cc2)c2c(C)nn(-c3ccccc3)c21 [RG-0008859, N-[(4S,5S)-4-(4-fluorophenyl)-7-(methoxymethyl)-3-methyl-6-oxo-1-phenyl-1H,4H,5H,6H,7H-pyrazolo[3,4-b]pyridin-5-yl]-3-methylbenzamide] | 491 ± 25.5
CCN1C(=O)[C@@H](NC(=O)c2cccc(C)c2)[C@@H](c2ccc(F)nc2)c2c(C)nn(-c3ccccc3)c21 [RG-0009513, N-[(4S,5S)-7-ethyl-4-(6-fluoropyridin-3-yl)-3-methyl-6-oxo-1-phenyl-1H,4H,5H,6H,7H-pyrazolo[3,4-b]pyridin-5-yl]-3-methylbenzamide] | 255 ± 28.2
CCN1C(=O)[C@@H](NC(=O)c2cccc(-c3ccccc3)c2)[C@@H](c2ccc(F)cc2)c2c(C)nn(-c3ccccc3)c21 [RG-0013978, N-[(4S,5S)-7-ethyl-4-(4-fluorophenyl)-3-methyl-6-oxo-1-phenyl-1H,4H,5H,6H,7H-pyrazolo[3,4-b]pyridin-5-yl]-[1,1′-biphenyl]-3-carboxamide] | 1310 ± 97.3
CCN1C(=O)[C@@H](NC(=O)c2cccc(S(C)(=O)=O)c2)[C@@H](c2ccc(F)cc2)c2c(C)nn(-c3ccccc3)c21 [RG-0013977, N-[(4S,5S)-7-ethyl-4-(4-fluorophenyl)-3-methyl-6-oxo-1-phenyl-1H,4H,5H,6H,7H-pyrazolo[3,4-b]pyridin-5-yl]-3-methanesulfonylbenzamide] | > 36500
CCN1C(=O)[C@@H](NC(=O)c2cccc(C(F)(F)F)c2)[C@@H](c2ccc(F)cc2)c2c(CN3CCNCC3)nn(-c3ccccc3)c21 [RG-0014141, N-[(4S,5S)-7-ethyl-4-(4-fluorophenyl)-6-oxo-1-phenyl-3-[(piperazin-1-yl)methyl]-1H,4H,5H,6H,7H-pyrazolo[3,4-b]pyridin-5-yl]-3-(trifluoromethyl)benzamide] | 141 ± 7.56
CCN1C(=O)[C@@H](NC(=O)c2cccc(C(F)(F)F)c2)[C@@H](c2ccc(F)cc2)c2c(COC(C)=O)nn(-c3ccccc3)c21 [RG-0013839, [(4S,5S)-7-ethyl-4-(4-fluorophenyl)-6-oxo-1-phenyl-5-[3-(trifluoromethyl)benzamido]-1H,4H,5H,6H,7H-pyrazolo[3,4-b]pyridin-3-yl]methyl acetate] | 116 ± 13.2
CCN1C(=O)[C@@H](NC(=O)c2cccc(C(F)(F)F)c2)[C@@H](c2ccc(F)c(OC)c2)c2c(C)nn(-c3ccccc3)c21 [RG-0013996, N-[(4S,5S)-7-ethyl-4-(4-fluoro-3-methoxyphenyl)-3-methyl-6-oxo-1-phenyl-1H,4H,5H,6H,7H-pyrazolo[3,4-b]pyridin-5-yl]-3-(trifluoromethyl)benzamide] | 1270 ± 47
Cc1cccc(C(=O)N[C@@H]2C(=O)N3CCCn4nc(C)c(c43)[C@@H]2c2ccc(F)cc2)c1 [RG-0008682, N-[(5S,6S)-5-(4-fluorophenyl)-3-methyl-7-oxo-1,2,8-triazatricyclo[6.3.1.0^4,^12]dodeca-2,4(12)-dien-6-yl]-3-methylbenzamide] | 12300
CCN1C(=O)[C@@H](NC(=O)c2cccc(C)c2F)[C@@H](c2ccc(F)cc2)c2c(C)nn(-c3ccccc3)c21 [RG-0014165, N-[(4S,5S)-7-ethyl-4-(4-fluorophenyl)-3-methyl-6-oxo-1-phenyl-1H,4H,5H,6H,7H-pyrazolo[3,4-b]pyridin-5-yl]-2-fluoro-3-methylbenzamide] | 541 ± 68.1
Cc1nn(-c2ccccc2)c2c1[C@H](c1ccc(F)cc1)[C@H](NC(=O)c1cccc(C(F)(F)F)c1)C(=O)N2C1CCC1 [RG-0013050, N-[(4S,5S)-7-cyclobutyl-4-(4-fluorophenyl)-3-methyl-6-oxo-1-phenyl-1H,4H,5H,6H,7H-pyrazolo[3,4-b]pyridin-5-yl]-3-(trifluoromethyl)benzamide] | 2580 ± 247
